Assay: xn = mol fraction of the nth substance listed
Details: 101 kPa

CC[n+]1ccn(C)c1.O=C([O-])C(F)(F)C(F)(F)C(F)(F)C(F)(F)F + O
viscosity [mPa·s]
Details	298.15 K	308.15 K	318.15 K
x1 = 0.0222	–	2.016	–
x1 = 0.0264	2.88	2.221	1.773
x1 = 0.0311	3.36	–	2.036
x1 = 0.0364	3.86	2.91	2.271
x1 = 0.0428	4.62	–	2.64
x1 = 0.0496	5.3	3.92	3.01
x1 = 0.0581	5.96	4.37	3.35
x1 = 0.067	6.84	4.93	3.7
x1 = 0.0727	7.23	5.22	3.93
x1 = 0.0857	8.38	–	4.5
x1 = 0.1009	–	7.34	5.4
x1 = 0.133	12.96	9.04	6.58
x1 = 0.1458	13.63	–	–
x1 = 0.1625	14.99	10.35	–
x1 = 0.1788	16.31	11.24	8.1
x1 = 0.201	17.94	–	8.85
x1 = 0.2367	–	14.29	10.22
x1 = 0.262	22.43	–	10.88
x1 = 0.3007	25.2	–	12.16
x1 = 0.4265	–	24.3	17.06
x1 = 0.7012	73.6	46.9	31.8
x1 = 1	107.5	65.9	43.1

Cn1cc[n+](CCO)c1.O=S(=O)([O-])C(F)(F)C(F)(F)C(F)(F)C(F)(F)F + O
Details	electrical conductivity, 298.15 K [S/m]	viscosity, 298.15 K [mPa·s]	viscosity, 308.15 K [mPa·s]	viscosity, 318.15 K [mPa·s]
x1 = 0.0178	4.26	2.036	1.632	1.344
x1 = 0.0195	4.4	2.133	1.689	1.381
x1 = 0.0212	4.52	2.326	1.847	1.517
x1 = 0.0232	–	–	1.972	–
x1 = 0.0253	4.75	2.66	2.104	1.719
x1 = 0.0274	–	–	2.2	1.77
x1 = 0.0297	4.91	3.09	2.42	1.975
x1 = 0.0321	4.97	3.3	2.6	–
x1 = 0.0348	5	3.56	2.78	2.227
x1 = 0.0376	5.1	3.7	2.87	2.274
x1 = 0.0405	5.1	4.19	3.25	2.58
x1 = 0.0438	5.2	4.43	–	–
x1 = 0.0474	5.2	4.87	3.73	2.95
x1 = 0.0511	–	–	4.07	3.2
x1 = 0.0551	5.2	5.75	4.36	3.42
x1 = 0.0596	–	–	4.76	–
x1 = 0.0644	5.1	6.82	–	3.98
x1 = 0.07	5.1	7.66	–	4.42
x1 = 0.0756	5	8.21	–	4.67
x1 = 0.0824	4.88	9.23	6.8	5.16
x1 = 0.0899	4.73	10.36	–	5.75
x1 = 0.0983	–	–	8.34	–
x1 = 0.1075	4.31	12.91	9.29	6.93
x1 = 0.1178	4.05	14.88	10.63	7.86
x1 = 0.1302	3.73	16.91	–	–
x1 = 0.1441	3.39	19.81	–	10.06
x1 = 0.1621	2.98	23.25	16.05	11.56
x1 = 0.1816	–	–	18.72	13.38
x1 = 0.2068	2.13	32.1	–	15.23
x1 = 0.2329	1.74	38.8	25.7	–
x1 = 0.2751	1.26	50.6	32.8	22.44
x1 = 0.3277	0.85	63.8	40.6	27.4
x1 = 0.3954	0.52	87.1	–	35.4
x1 = 0.5075	0.241	133.7	79.6	50.5
x1 = 0.6777	–	–	143.5	86.8
x1 = 1	0.033	832	411	224
